Results taken from the NIST ThermoML archive (doi:10.1016/j.fluid.2006.01.008).
± gives the expanded uncertainty stated by the source.

Key:
[1] = refractive index (Na D-line) (dimensionless); xn = mol fraction of the nth substance listed; conditions: 298.15 K, 101 kPa, Liquid, Standard Abbe refractometry
[2] = xn = mol fraction of the nth substance listed; conditions: 298.15 K, 101 kPa, Liquid; for viscosity: Capillary tube (Ostwald / Ubbelohde) method; for speed of sound: Sing-around technique in a fixed-path interferometer; for mass density: Vibrating tube method
[3] = 298.15 K, 101.33 kPa, Liquid; for viscosity: Capillary tube (Ostwald / Ubbelohde) method; for speed of sound: Sing-around technique in a fixed-path interferometer; for mass density: Vibrating tube method
[4] = refractive index (Na D-line) (dimensionless); conditions: 298.15 K; 101.33 kPa; Liquid; Standard Abbe refractometry

CCCCCCCC[n+]1ccn(C)c1.F[B-](F)(F)F [1-methyl-3-octylimidazolium tetrafluoroborate] + CCCO
Conditions	mass density, [2] [kg/m3]	refractive index, [1]	speed of sound, [2] [m/s]	viscosity, [2] [mPa·s]
x1 = 0.0473	844.63 ± 0.12	1.39108 ± 0.00032	1232 ± 1	2.789 ± 0.072
x1 = 0.0982	883.64 ± 0.12	1.3978 ± 0.00032	1256 ± 1	3.942 ± 0.074
x1 = 0.2034	943.18 ± 0.14	1.40783 ± 0.00032	1306 ± 1	7.531 ± 0.081
x1 = 0.241	959.69 ± 0.13	1.41061 ± 0.00032	1321 ± 1	9.169 ± 0.085
x1 = 0.2958	980.53 ± 0.13	1.41405 ± 0.00033	1343 ± 1	12.21 ± 0.1
x1 = 0.4007	1012.5 ± 0.16	1.41928 ± 0.00033	1377 ± 1	20.65 ± 0.13
x1 = 0.4355	1021.38 ± 0.16	1.42071 ± 0.00033	1387 ± 1	24.52 ± 0.15
x1 = 0.4988	1035.79 ± 0.17	1.42301 ± 0.00034	1403 ± 1	33.31 ± 0.21
x1 = 0.5506	1046.19 ± 0.17	1.42472 ± 0.00034	1414 ± 1	43.39 ± 0.27
x1 = 0.6165	1057.95 ± 0.19	1.42671 ± 0.00034	1428 ± 2	59.9 ± 0.34
x1 = 0.6778	1067.63 ± 0.2	1.42832 ± 0.00035	1439 ± 2	79.52 ± 0.75
x1 = 0.7828	1081.97 ± 0.23	1.43069 ± 0.00035	1457 ± 2	130.9 ± 2.3
x1 = 0.9118	1096.63 ± 0.28	1.43297 ± 0.00036	1477 ± 2	238.4 ± 6.5

CCO [ethanol]
Conditions	mass density [kg/m3]	refractive index	speed of sound [m/s]	viscosity [mPa·s]
[3]	785.22 ± 0.12	–	1144 ± 1	1.077 ± 0.031
[4]	–	1.3592 ± 0.00031	–	–

CC(C)O [propan-2-ol]
Conditions	mass density [kg/m3]	refractive index	speed of sound [m/s]	viscosity [mPa·s]
[3]	780.95 ± 0.15	–	1140 ± 1	2.054 ± 0.013
[4]	–	1.3752 ± 0.00033	–	–

CCCCCCCC[n+]1ccn(C)c1.F[B-](F)(F)F [1-methyl-3-octylimidazolium tetrafluoroborate]
Conditions	mass density [kg/m3]	refractive index	speed of sound [m/s]	viscosity [mPa·s]
[3]	1105.3 ± 0.32	–	1491 ± 2	359.9 ± 12
[4]	–	1.43422 ± 0.00037	–	–

CCCCCCCC[n+]1ccn(C)c1.F[B-](F)(F)F [1-methyl-3-octylimidazolium tetrafluoroborate] + CO
Conditions	mass density, [2] [kg/m3]	refractive index, [1]	speed of sound, [2] [m/s]	viscosity, [2] [mPa·s]
x1 = 0.0495	869.02 ± 0.11	1.35534 ± 0.00032	1188 ± 1	0.981 ± 0.071
x1 = 0.0979	921.23 ± 0.11	1.3733 ± 0.00032	1243 ± 1	1.622 ± 0.071
x1 = 0.1997	986.4 ± 0.13	1.39501 ± 0.00032	1323 ± 1	3.85 ± 0.074
x1 = 0.2859	1018.55 ± 0.13	1.40551 ± 0.00033	1366 ± 1	7.131 ± 0.081
x1 = 0.3648	1038.89 ± 0.14	1.41222 ± 0.00033	1394 ± 1	11.81 ± 0.1
x1 = 0.4461	1054.52 ± 0.16	1.41738 ± 0.00033	1416 ± 1	18.9 ± 0.13
x1 = 0.4922	1061.78 ± 0.17	1.41982 ± 0.00034	1426 ± 1	24.16 ± 0.16
x1 = 0.5121	1064.62 ± 0.17	1.42076 ± 0.00034	1430 ± 1	27.22 ± 0.18
x1 = 0.5709	1072.21 ± 0.18	1.42339 ± 0.00034	1440 ± 1	38.28 ± 0.24
x1 = 0.5972	1075.25 ± 0.18	1.42443 ± 0.00034	1445 ± 2	44.63 ± 0.28
x1 = 0.6485	1080.67 ± 0.2	1.42629 ± 0.00035	1452 ± 2	57.72 ± 0.33
x1 = 0.785	1092.37 ± 0.24	1.43029 ± 0.00035	1469 ± 2	123.9 ± 2
x1 = 0.9049	1100.21 ± 0.28	1.43284 ± 0.00036	1482 ± 2	228.6 ± 6.1

CCCO [propan-1-ol]
Conditions	mass density [kg/m3]	refractive index	speed of sound [m/s]	viscosity [mPa·s]
[3]	799.47 ± 0.12	–	1207 ± 1	1.928 ± 0.032
[4]	–	1.38306 ± 0.00032	–	–

CCCCCCCC[n+]1ccn(C)c1.F[B-](F)(F)F [1-methyl-3-octylimidazolium tetrafluoroborate] + CC(C)O
Conditions	mass density, [2] [kg/m3]	refractive index, [1]	speed of sound, [2] [m/s]	viscosity, [2] [mPa·s]
x1 = 0.0459	826.83 ± 0.14	1.38385 ± 0.00033	1170 ± 1	2.956 ± 0.073
x1 = 0.0892	862.39 ± 0.14	1.39059 ± 0.00033	1198 ± 1	3.955 ± 0.074
x1 = 0.182	921.09 ± 0.16	1.40147 ± 0.00033	1254 ± 1	7.053 ± 0.081
x1 = 0.2506	953.75 ± 0.17	1.40743 ± 0.00034	1291 ± 1	10.15 ± 0.09
x1 = 0.2965	972 ± 0.16	1.41077 ± 0.00034	1312 ± 1	12.88 ± 0.1
x1 = 0.3677	996.08 ± 0.17	1.41503 ± 0.00034	1343 ± 1	18.27 ± 0.12
x1 = 0.4214	1011.52 ± 0.18	1.41781 ± 0.00034	1362 ± 1	23.79 ± 0.16
x1 = 0.4798	1026.24 ± 0.2	1.42048 ± 0.00034	1381 ± 2	31.66 ± 0.2
x1 = 0.5028	1031.53 ± 0.2	1.42134 ± 0.00035	1387 ± 2	35.48 ± 0.23
x1 = 0.6166	1054.39 ± 0.21	1.42547 ± 0.00035	1416 ± 2	61.95 ± 0.39
x1 = 0.7089	1069.7 ± 0.23	1.42817 ± 0.00035	1437 ± 2	96.3 ± 1.2
x1 = 0.7558	1076.59 ± 0.24	1.42938 ± 0.00036	1446 ± 2	120.5 ± 1.9
x1 = 0.8697	1091.33 ± 0.27	1.43182 ± 0.00036	1467 ± 2	202.6 ± 5

CCCCCCCC[n+]1ccn(C)c1.F[B-](F)(F)F [1-methyl-3-octylimidazolium tetrafluoroborate] + CCO
Conditions	mass density, [2] [kg/m3]	refractive index, [1]	speed of sound, [2] [m/s]	viscosity, [2] [mPa·s]
x1 = 0.0517	849.43 ± 0.11	1.37489 ± 0.00031	1195 ± 1	1.74 ± 0.071
x1 = 0.0818	878.24 ± 0.11	1.38179 ± 0.00031	1218 ± 1	2.25 ± 0.072
x1 = 0.1822	946.85 ± 0.13	1.39805 ± 0.00032	1287 ± 1	4.722 ± 0.075
x1 = 0.2779	988.78 ± 0.13	1.40778 ± 0.00032	1336 ± 1	8.542 ± 0.083
x1 = 0.378	1019.53 ± 0.14	1.41488 ± 0.00033	1376 ± 1	14.99 ± 0.11
x1 = 0.46	1038.64 ± 0.15	1.41926 ± 0.00033	1398 ± 1	23.42 ± 0.15
x1 = 0.5474	1054.97 ± 0.16	1.42304 ± 0.00034	1419 ± 1	37.38 ± 0.23
x1 = 0.5537	1056.01 ± 0.16	1.42326 ± 0.00034	1420 ± 1	38.62 ± 0.23
x1 = 0.5636	1057.63 ± 0.17	1.42362 ± 0.00034	1422 ± 1	40.81 ± 0.25
x1 = 0.6203	1066.22 ± 0.18	1.4256 ± 0.00034	1434 ± 1	54.88 ± 0.27
x1 = 0.662	1071.9 ± 0.19	1.42683 ± 0.00034	1441 ± 2	67.91 ± 0.49
x1 = 0.7749	1085.35 ± 0.22	1.42973 ± 0.00035	1459 ± 2	120.4 ± 1.9
x1 = 0.9286	1099.7 ± 0.28	1.43293 ± 0.00036	1481 ± 2	251.9 ± 7.1

CO [methanol]
Conditions	mass density [kg/m3]	refractive index	speed of sound [m/s]	viscosity [mPa·s]
[3]	786.63 ± 0.13	–	1102 ± 1	0.541 ± 0.03
[4]	–	1.3264 ± 0.00032	–	–
